Laboratory results taken from patent publication US11655215B2, “Photostabilizing compounds, compositions, and methods” (ELC MANAGEMENT LLC, priority 2018, dated 2023).

Legend:
Format in all cases: physicochemical
[1] = Fluorescence quenching of retinol (TCSPC fluorescence lifetimes); details: THF, retinol 0.2 mM, excitation 335 nm, fluorescence at 483 nm; slope of FIG. 2
Procedure: (§1) The THF solutions of retinol at 0.2 mM and Compound 1 at various concentration were measured on OB920 TR-SPC (Edinburgh Analytical Instruments) by time-correlated single photon counting (TCSPC) using a pulsed LED (335 nm, 5 MHz) for excitation (PicoQuant) for the corresponding fluorescence lifetimes. The fluorescence signal was collected at 483 nm.

[2] = Keto-Avobenzone triplet state quenching (laser flash photolysis, transient absorption); details: deoxygenated acetonitrile, avobenzone 0.25 mM, 266 nm flash photolysis, monitored at 380 nm; slope of FIG. 3
Procedure: The deoxygenated acetonitrile solutions of avobenzone at 0.25 mM and Compound 1 at various concentrations were measured for transient absorption on a homebuilt system (Y. Yagci, S. Jockusch and N. J. Turro, Macromolecules, 2007, 40, 4481-4485; hereby incorporated by reference in its entirety). Keto-Avobenzone was generated by photolysis of enol-Avobenzone at 350 nm. Laser flash photolysis of keto-Avobenzone was conducted at 266 nm with 5 ns pulse width as shown below:
The decay traces of the triplet-absorption of keto-Avobenzone was monitored at 380 nm.

[3] = PpIX triplet state quenching (transient absorption); details: Argon saturated acetonitrile, 532 nm excitation, transient absorbance at 630 nm; slope of FIG. 4
Procedure: The Argon saturated acetonitrile solutions of Protoporphyrin IX (PpIX) at a concentration optimal for light absorption and Compound 1 at various concentrations were measured for transient absorption on a homebuilt system (Y. Yagci, S. Jockusch and N. J. Turro, Macromolecules, 2007, 40, 4481-4485; hereby incorporated by reference in its entirety). Triplet lifetimes were measured at 532 nm (7 ns pulse length) and the transient absorbance was monitored at 630 nm.

[4] = PpIX singlet excited state quenching (TCSPC fluorescence lifetimes); details: acetonitrile, excitation 496 nm, fluorescence at 630 nm; slope of FIG. 5
Procedure: as §1, with “acetonitrile” for “THF”, “PpIX” for “retinol”, “a concentration optimal for light absorption” for “0.2 mM”, “(496 nm)” for “(335 nm, 5 MHz)”, “630” for “483”

[5] = Singlet oxygen generation quenching, Stern-Volmer, Pp-MeIX in acetonitrile; details: air saturated acetonitrile, 532 nm excitation, 1O2 phosphorescence at 1270 nm, slope of FIG. 7
Procedure: (§2) Singlet oxygen phosphorescence measurements of the air saturated acetonitrile solutions of the dimethyl ester derivative of PpIX (Pp-MeIX) at the concentration optimal for light absorption and Compound 1 at various concentrations were performed on a modified Fluorolog-3 spectrometer (HORIBA Jobin Yvon) in conjunction with a NIR sensitive photomultiplier tube (H102330A-45, Hamamatsu). A Spectra Physics GCR-150-30 Nd:YAG laser (532 nm, ca. 5 mJ per pulse, 7 ns) was used for pulsed excitation to collect ^1O2 phosphorescence decay traces at 1270 nm which were stored on a digital oscilloscope (TDS 360 from Tektronics). The Stern-Volmer plots of singlet oxygen phosphorescence were illustrated in FIG. 7. The Stern-Volmer constant Ksv was calculated from the slope of the plot in FIG. 7 to be 57±2 M^−1, which is a direct measurement of the singlet oxygen suppression efficiency of Compound 1.

[6] = Singlet oxygen generation quenching, Stern-Volmer, Pp-MeIX in CDCl3; details: air saturated CDCl3, Pp-MeIX, 532 nm excitation, 1O2 phosphorescence at 1270 nm; slope of FIG. 8B
Procedure: as §2, with “saturated CDCl3” for “saturated acetonitrile”, “FIG. 8B.” for “FIG. 7.”, “FIG. 8B” for “FIG. 7”, “be 14±1” for “be 57±2”

[7] = Singlet oxygen quenching rate constant in acetonitrile (phosphorescence lifetime); details: air saturated acetonitrile, Pp-MeIX, 1O2 phosphorescence lifetime at 1270 nm; slope of FIG. 9B
Procedure: as §2, with “Tektronics).” for “Tektronics). The Stern-Volmer plots of singlet oxygen phosphorescence were illustrated in FIG. 7. The Stern-Volmer constant Ksv was calculated from the slope of the plot in FIG. 7 to be 57±2 M^−1, which is a direct measurement of the singlet oxygen suppression efficiency of Compound 1.”

**Q.** Which results are given for CCCCC(CC)COC(=O)/C(C#N)=C1/c2ccccc2-c2cccnc21 (stereo not shown) [Compound 1]?
**A.** bimolecular quenching rate constant Kq of quenching of retinol fluorescence [1]: (9.0±0.3)×10^9 M^−1s^−1; quenching rate constant kq of keto-Avobenzone triplet states [2]: (3.5±0.2)×10^9 M^−1s^−1; quenching rate constant kq of PpIX triplet states [3]: 2.7±0.1×10^7 M^−1s^−1; bimolecular quenching rate constant Kq of quenching of PpIX fluorescence (singlet excited state) [4]: 2.5±0.1×10^9 M^−1s^−1; Stern-Volmer constant Ksv (singlet oxygen suppression efficiency) [5]: 57 ± 2 M⁻¹; Stern-Volmer constant Ksv (singlet oxygen suppression efficiency) [6]: 14 ± 1 M⁻¹; bimolecular quenching rate constant kq of singlet oxygen quenching [7]: 1.5±0.1×10^5 M^−1s^−1
